# Experimental data from patent US12590332B2, “Composition for diagnosing or treating kidney disease” (INJE UNIVERSITY INDUSTRY-ACADEMIC COOPERATION FOUNDATION, priority 2020, dated 2026).
# Tests used:
# Balb/c male mice = assay: Adriamycin-induced renal injury model; conditions: 11 mg/kg once into tail vein, 4 weeks, FIG. 8
# mouse podocyte cell line = assay: VSIG4 expression in podocytes (mRNA by PCR, protein by Western blot); assay type: cell-based
# Method: The mouse podocyte cell line was mixed with 10% heat inactivated fetal bovine serum, 100 IU/mL of penicillin, and […] of streptomycin in RPMI culture medium and cultured in a humid atmosphere in the presence of 5% CO2 at 37° C. To evaluate VSIG4 expression, low glucose (LG, 5.5 mM) and high glucose (HG, 55 mM), 100 nM angiotensin II, 1.0 μg/mL and 3.0 μg/mL of Adriamycin were treated. The medium in a plate in which cells are being cultured was removed and RNA was extracted using Trizol (Life Technologies, Gaithersburg, MD, USA). Reverse transcription (RT) was performed using a cDNA synthesis kit (Applied biosystems, Roche Inc., Foster City, CA, USA), mRNA expression was evaluated using polymerase chain reaction (PCR), and the expression level was corrected with β-actin or GAPDH. Proteins obtained by treating cell lysates with RIPA buffer were quantified, and 20 μg of protein was separated using 8-15% SDS-PAGE. After separation of the protein by electrophoresis using 10% SDS-PAGE, the protein was transferred to a PVDF membrane (Millipore corporation bedford, USA) using a PAGE transfer buffer (Amersham Life Science, Arlington Heights, IL) at 270 mA for 4 hours, reacted overnight at 4° C. using a blocking solution (5% skim milk), and washed with Tris buffered saline with Tween-20 (TBS-T buffer; 10 mM Tris-Cl, pH 7.8, […] Nacl, 0.05% Tween-20). […]
# HK2 cells = assay: VSIG4 expression in HK2 renal tubular cells (mRNA by PCR, protein by Western blot); assay type: cell-based, human; conditions: renal tubular cells treated with TGF-β (10 ng/mL recombinant); FIG. 3
# Method: HK2 cells (A TCC, Manassan, VA), immortalized human renal proximal tubule cells, were cultured by adding, in a DMEM medium (Mediatech Inc., Corning Subsidiary, Manassas, VA), 10% heat inactivated fetal bovine serum (Tissue Culture Biologicals, Tulare, CA, USA), 100 IU/mL of penicillin, and […] of streptomycin in a humid atmosphere in the presence of 5% CO2 at 37° C.
# […] The purchased scrambled siRNA (control siRNA) and VSIG4 siRNA (z391g, Santa Cruz Biotechnology, Santa Cruz, CA) were each transfected by 200 MOI to suppress VSIG4 expression in HK2 cells.
# To inhibit TGF-β expression, TGF-β-siRNA (Santa Cruz Biotechnology, Santa Cruz, CA, USA) was used, and 10 ng/mL of recombinant TGF-β (R&D systems, Minneapolis, MN, USA) was used for TGF-β stimulation experiment.
# The medium in a plate in which cells are being cultured was removed and RNA was extracted using Trizol (Life Technologies, Gaithersburg, MD, USA). Reverse transcription (RT) was performed using a cDNA synthesis kit (Applied biosystems, Roche Inc., Foster City, CA, USA), mRNA expression was evaluated using polymerase chain reaction (PCR), and the expression level was corrected with β-actin or GAPDH.
# Proteins obtained by treating cell lysates with RIPA buffer were quantified, and 20 μg of protein was separated using 8-15% SDS-PAGE. […]
compound,measurement,setting,value
COc1cccc2c1C(=O)c1c(O)c3c(c(O)c1C2=O)C[C@@](O)(C(=O)CO)C[C@@H]3O[C@H]1C[C@H](N)[C@H](O)[C@H](C)O1 [Adriamycin],VSIG4 protein expression (urine),"Balb/c male mice; 24-hour urine, ELISA",significantly increased
same,albuminuria,Balb/c male mice; 24-hour urine,significantly increased
same,VSIG4 mRNA expression in kidney tissues,Balb/c male mice,significantly increased
same,expression of VSIG4 mRNA and protein,"mouse podocyte cell line; podocytes, 1.0 μg/mL and 3.0 μg/mL, 12 hours and 24 hours, FIG. 9",increased over time
TGF-β,VSIG4 expression,HK2 cells,increased
"angiotensin II (DRVYIHPF; Angiotensin-2; UniProt P01019 25-32, looked up) [main substance of kidney damage used to stimulate podocytes]",expression of VSIG4 mRNA and protein,"mouse podocyte cell line; podocytes stimulated with high glucose (55 mM) and angiotensin II (100 nM), compared to low glucose, FIG. 4",increased
